Source: US20250250292A1, “DELIVERY SYSTEM TO TARGET GRAM-NEGATIVE BACTERIA” (priority 2022, published 2025)
≈ marks a conversion by molar mass, not a printed value. Where two headings read alike, the source gives them in different places.

Columns and labels:
Assay type in all cases: cell-based
Citrobacter freundii = test: Antibacterial in vitro activity (MIC)
Experimental: (§1) These compounds were tested in an E. coli and Klebsiella strain to determine the change in OD600 as a function of concentration (FIG. 5, E. coli; FIG. 6, Klebsiella). The antibacterial activity of the compounds was further analyzed and activity was determine a variety of different bacterial strains.

Enterobacter cloacae = test: Antibacterial in vitro activity (MIC)
Experimental: as §1

Haemophilus influenzae = test: Antibacterial in vitro activity (MIC)
Experimental: as §1

Salmonella typhimurium = test: Antibacterial in vitro activity (MIC); details: Salmonella enterica, ATCC 13311 / TYPHIMURIUM; isolate D0109, ATCC13311
Experimental: as §1

Streptococcus pneumoniae = test: Antibacterial in vitro activity (MIC)
Experimental: as §1

Proteus mirabilis = test: Antibacterial in vitro activity (MIC)
Experimental: as §1

Klebsiella pneumoniae = test: Antibacterial in vitro activity (MIC)
Experimental: as §1

Acinetobacter baumannii = test: Antibacterial in vitro activity (MIC)
Experimental: as §1

Pseudomonas aeruginosa = test: Antibacterial in vitro activity (MIC)
Experimental: as §1

Staphylococcus aureus = test: Antibacterial in vitro activity (MIC)
Experimental: as §1

Escherichia coli = test: Antibacterial in vitro activity (MIC)
Experimental: as §1

[1] = system: clinical isolates of Staphylococcus aureus (NR-49120, NR-46413); test: Resazurin blue (alamarBlue) bacterial cell viability assay, gram-positive model; details: clinical strains of Staphylococcus aureus
Experimental: (§2) To compare the efficacy of pleuromutilin and the pleuromulin-TPP^+ ester pro-drug (AP-8-159B) gram-negative and gram-positive pathogen model system were used. Thus, Escherichia coli (BL21(DE3) from New England Biolabs) was used as a model strain for gram-negative bacteria and clinical isolates of Staphylococcus aureus were used as the model system for gram-positive bacteria (NR-49120, NR-46413 obtained from BEI Resources). All strains were cultured at 37° C. overnight in Luria Bertani (LB) (BD 244610). For testing the drug sensitivity, bacteria were grown in RPMI medium containing 10% fetal bovine serum or human serum.
A resazurin blue assay (alamarBlue®) (Toté et al., 2009; Costa et al., 2021; Wannigama et al., 2019; Travnickova et al., 2019) was used to evaluate bacterial cell viability. Resazurin (7-hydroxy-10-oxidophenoxazin-10-ium-3-one, sodium) is a blue fluorogenic dye used as a redox indicator in cell viability and proliferation assays for bacteria, yeast, or mammalian cells. […] This simple fluorometric-based assay rapidly quantifies metabolically active bacterial cells. […] The positive control used evaluated media alone without bacterial culture to confirm there was no change from blue to red. The negative control evaluated the bacteria culture alone without added compound to provide a 100% growth control (red). […] Changes in fluorescence were measured on the Biotek Synergy 2 plate reader after an 8-hour incubation at 37° C. using an excitation filter range of 530-570 nm and an emission filter range of 590-620 nm. An increase in fluorescence intensity corresponded to bacterial growth and was quantified by comparison with untreated bacterial control samples. The ratio of (TThreshold (untreated)/TThreshold (prodrug-treated)) (where T=time) was used to quantify the change in bacterial growth. To minimize inter-experimental variations, TThreshold values were corrected by subtracting untreated control cultures to reach minimum detectable fluorescence. […]

MRC5 fibroblast cells = test: Cel Titer Glo cytotoxicity in MRC5 cells; details: for IC50: Homo sapiens
Experimental: In order to facilitate development of the TPP containing antibiotics, a series of TPP linkers were prepared and tested for their toxicity in MRC5 cells. This library of linkers are shown below: The toxicity of these linkers in MRC5 cells after a 72 hour incubation.

[2] = system: Escherichia coli (BL21(DE3)); test: Resazurin blue (alamarBlue) bacterial cell viability assay, gram-negative model; details: for cytotoxicity potency: E Coli BL21 (DE3); for cytotoxic effect: E. coli BL21 (DE3)
Experimental: as §2
A resazurin blue assay (alamarBlue®) (Toté et al., 2009; Costa et al., 2021; Wannigama et al., 2019; Travnickova et al., 2019) was used to evaluate bacterial cell viability. Resazurin (7-hydroxy-10-oxidophenoxazin-10-ium-3-one, sodium) is a blue fluorogenic dye used as a redox indicator in cell viability and proliferation assays for bacteria, yeast, or mammalian cells. The resazurin assay protocol is based on the reduction of oxidized non-fluorescent blue resazurin to a red fluorescent dye (resorufin), where NADPH dehydrogenase, without being bound by theory, is probably responsible for the transference of electrons from NADPH+H^+ to resazurin (Costa et al., 2021). The amount of resorufin produced is directly proportional to the number of living cells. This simple fluorometric-based assay rapidly quantifies metabolically active bacterial cells. Two controls were added to the plate to confirm the correct response from the resazurin. The positive control used evaluated media alone without bacterial culture to confirm there was no change from blue to red. The negative control evaluated the bacteria culture alone without added compound to provide a 100% growth control (red). Thus, resazurin sodium salt (Sigma R7017) was added to pleuromutilin or pleuromutilin-TPP+ prodrug treated bacterial samples at a final concentration of 0.02% and incubated for 8 hours at 37° C. Changes in fluorescence were measured on the Biotek Synergy 2 plate reader after an 8-hour incubation at 37° C. using an excitation filter range of 530-570 nm and an emission filter range of 590-620 nm. An increase in fluorescence intensity corresponded to bacterial growth and was quantified by comparison with untreated bacterial control samples. The ratio of (TThreshold (untreated)/TThreshold (prodrug-treated)) (where T=time) was used to quantify the change in bacterial growth. To minimize inter-experimental variations, TThreshold values were corrected by subtracting untreated control cultures to reach minimum detectable fluorescence. At the end of the experiment, wells were visualized for changes in color from blue (inviable bacteria) to red (viable bacteria) and a picture was taken.

Streptococcus agalactiae = test: Antibacterial in vitro activity (MIC); details: isolate B0790, Clinical isolate
Experimental: as §1

Streptococcus pyogenes = test: Antibacterial in vitro activity (MIC); details: isolate B0780, Clinical isolate
Experimental: as §1

Enterococcus faecium = test: Antibacterial in vitro activity (MIC); details: isolate D0459, Clinical isolate
Experimental: as §1

[3] = isolate B0271, Clinical isolate
[4] = isolate D1089, Clinical isolate
[5] = isolate D1090, Clinical isolate
[6] = ATCC49247, isolate B0035, ATCC 49247
[7] = isolate B0126, Clinical isolate
[8] = isolate B0078, Clinical isolate
[9] = isolate B0415, Clinical isolate
[10] = Proteus mirabilis, isolate D1301, Clinical isolate, read-out: MIC
[11] = isolate D1300, Clinical isolate
[12] = ATCC11228, isolate B0032, ATCC 11228
[13] = ATCC29519, isolate D0033, ATCC 29519
[14] = ATCC43816, isolate B0305, ATCC 43816
[15] = ATCC15473, isolate B0473, ATCC 15473
[16] = isolate B1062, Clinical isolate
[17] = ATCC27853, isolate B0015, ATCC 27853
[18] = ATCC29511, isolate B0016, ATCC 29511
[19] = isolate B0367, Clinical isolate
[20] = ATCC49951, isolate B0009, ATCC 49951
[21] = isolate B0029, Clinical isolate
[22] = ATCC25922, isolate B0001, ATCC 25922, read-out: MIC
[23] = isolate B0158, AcrAB-TolC efflux pump WT, read-out: MIC
[24] = isolate B0159, Efflux pump deficient (ΔtolC)
[25] = isolate B0429, Efflux pump deficient (ΔacrAB)
[26] = isolate B1098, Clinical isolate, read-out: MIC
[27] = isolate D0120, Clinical isolate, read-out: MIC
[28] = Table 2, cytotoxicity in MRC5 fibroblast cells
[29] = Table 1, TPP+ linkers, MRC5 cells, 72-hour incubation

SMILES: C=C[C@]1(C)C[C@@H](OC(=O)CO)[C@]2(C)[C@H](C)CC[C@]3(CCC(=O)[C@H]32)[C@@H](C)[C@@H]1O [Pleuromutilin]
- MIC (Citrobacter freundii; [3]): > 128 mg/L
- MIC (Citrobacter freundii; isolate B0286, AKH Vienna): > 128 mg/L
- MIC (Enterobacter cloacae; [4]): > 128 mg/L
- MIC (Enterobacter cloacae; [5]): > 128 mg/L
- MIC (Haemophilus influenzae; [6]): 4 mg/L (≈ 10.6 µM)
- MIC (Haemophilus influenzae; [7]): 1 mg/L (≈ 2.64 µM)
- MIC (Salmonella typhimurium): 128 mg/L (≈ 338 µM)
- MIC (Streptococcus pneumoniae; [8]): 4 mg/L (≈ 10.6 µM)
- MIC (Streptococcus pneumoniae; [9]): 1 mg/L (≈ 2.64 µM)
- MIC (Proteus mirabilis; [10]): > 128 mg/L
- MIC (Proteus mirabilis; [11]): >128 mg/L
- MIC (Klebsiella pneumoniae; [12]): > 128 mg/L
- MIC (Klebsiella pneumoniae; [13]): > 128 mg/L
- MIC (Klebsiella pneumoniae; [14]): > 128 mg/L
- MIC (Acinetobacter baumannii; [15]): > 128 mg/L
- MIC (Acinetobacter baumannii; [16]): > 128 mg/L
- MIC (Pseudomonas aeruginosa; [17]): > 128 mg/L
- MIC (Pseudomonas aeruginosa; [18]): > 128 mg/L
- MIC (Pseudomonas aeruginosa; [19]): > 128 mg/L
- MIC (Staphylococcus aureus; [20]): 1 mg/L (≈ 2.64 µM)
- MIC (Staphylococcus aureus; [21]): 1 mg/L (≈ 2.64 µM)
- MIC (Escherichia coli; [22]): 128 mg/L (≈ 338 µM)
- MIC (Escherichia coli; [23]): > 128 mg/L
- MIC (Escherichia coli; [24]): 0.5 mg/L (≈ 1.32 µM)
- MIC (Escherichia coli; [25]): 32 mg/L (≈ 84.5 µM)
- MIC (Escherichia coli; [26]): > 128 mg/L
- MIC (Escherichia coli; [27]): > 128 mg/L
- cytotoxic effect [1]: potent cytotoxic agents
- IC50 (MRC5 fibroblast cells; [28]): > 90 µM
- cytotoxicity potency [2]: 25 mg/L
- cytotoxic effect [2]: much less cytotoxic

SMILES: O=C(O)c1ccc(C[P+](c2ccccc2)(c2ccccc2)c2ccccc2)cc1 [AP-8-108, (4-Carboxybenzyl)triphenylphosphonium bromide]
- MIC (Escherichia coli; [22]): > 32 mg/L
- MIC (Escherichia coli; [24]): > 32 mg/L
- MIC (Escherichia coli; [25]): > 32 mg/L
- MIC (Escherichia coli; [26]): > 32 mg/L
- MIC (Escherichia coli; [27]): > 32 mg/L
- cytotoxic effect [1]: no cytotoxic effect
- IC50 (MRC5 fibroblast cells; [29]): > 90 µM
- IC50 (MRC5 fibroblast cells; [28]): > 90 µM
- cytotoxic effect [2]: no cytotoxic effect

SMILES: C=C[C@]1(C)C[C@@H](OC(=O)COC(=O)c2ccc(C[P+](c3ccccc3)(c3ccccc3)c3ccccc3)cc2)[C@]2(C)CC[C@@H](C)[C@@]3(CCC(=O)[C@@H]23)[C@@H](C)[C@@H]1O [AP-8-159B]
- MIC (Citrobacter freundii; [3]): 64 mg/L
- MIC (Citrobacter freundii; isolate B0286, AKH Vienna): 64 mg/L
- MIC (Enterobacter cloacae; [4]): > 128 mg/L
- MIC (Enterobacter cloacae; [5]): > 128 mg/L
- MIC (Haemophilus influenzae; [6]): 1 mg/L
- MIC (Haemophilus influenzae; [7]): 0.25 mg/L
- MIC (Salmonella typhimurium): 16 mg/L
- MIC (Streptococcus pneumoniae; [8]): 0.5 mg/L
- MIC (Streptococcus pneumoniae; [9]): ≤ 0.12 mg/L
- MIC (Streptococcus agalactiae): 0.06 mg/L
- MIC (Proteus mirabilis; [10]): 32 mg/L
- MIC (Proteus mirabilis; [11]): 32 mg/L
- MIC (Klebsiella pneumoniae; [12]): > 128 mg/L
- MIC (Klebsiella pneumoniae; [13]): 128 mg/L
- MIC (Klebsiella pneumoniae; [14]): 128 mg/L
- MIC (Acinetobacter baumannii; [15]): 64 mg/L
- MIC (Acinetobacter baumannii; [16]): 128 mg/L
- MIC (Streptococcus pyogenes): 0.12 mg/L
- MIC (Enterococcus faecium): 0.5 mg/L
- MIC (Pseudomonas aeruginosa; [17]): 8 mg/L
- MIC (Pseudomonas aeruginosa; [18]): 16 mg/L
- MIC (Pseudomonas aeruginosa; [19]): 4 mg/L
- MIC (Staphylococcus aureus; [20]): ≤ 0.12 mg/L
- MIC (Staphylococcus aureus; [21]): 0.5 mg/L
- MIC (Staphylococcus aureus; isolate B1325, Clinical isolates): 0.5 mg/L
- MIC (Escherichia coli; [22]): 8 mg/L
- MIC (Escherichia coli; [23]): 32 mg/L
- MIC (Escherichia coli; [24]): 0.5 mg/L
- MIC (Escherichia coli; [25]): 1 mg/L
- MIC (Escherichia coli; [26]): 16 mg/L
- MIC (Escherichia coli; [27]): 16 mg/L
- cytotoxic effect [1]: potent cytotoxic agents
- IC50 (MRC5 fibroblast cells; [28]): 4.67 µM
- cytotoxicity (MRC5 fibroblast cells; normal MRC5 fibroblast cell lines): weak cytoxcity
- cytotoxicity potency [2]: 1.65 mg/L

SMILES: O=C(O)CC[P+](c1ccccc1)(c1ccccc1)c1ccccc1 [AP-4-8]
- IC50 (MRC5 fibroblast cells; [29]): > 90 µM

SMILES: OCc1ccc([P+](c2ccccc2)(c2ccccc2)c2ccccc2)cc1 [AP-8-98]
- IC50 (MRC5 fibroblast cells; [29]): 57.6 µM

SMILES: O=C(O)CCCCC[P+](c1ccccc1)(c1ccccc1)c1ccccc1 [AP-3-195]
- IC50 (MRC5 fibroblast cells; [29]): > 90 µM

SMILES: O=C(OCCOCCO)c1ccc([P+](c2ccccc2)(c2ccccc2)c2ccccc2)cc1 [AP-8-99-2]
- IC50 (MRC5 fibroblast cells; [29]): > 90 µM

SMILES: O=C(O)c1ccc([P+](c2ccccc2)(c2ccccc2)c2ccccc2)cc1 [AP-8-99-1]
- IC50 (MRC5 fibroblast cells; [29]): > 90 µM
